Measured values as given in US12589130B2, “Aloe extracts for microbial neutralisation” (2QR RESEARCH B.V., priority 2020, dated 2026).

System: Staphylococcus aureus
Assay: Aggregation of fluorescently labelled microorganisms, MAC (Example 1)
Format: cell-based
Description: Microbial cells were fluorescently labelled with fluorescein isothiocyanate (FITC, Sigma-Aldrich, St Louis, MO, USA) or SYTO™ 24 green fluorescent nucleic acid stain (Thermo Fisher, Rockford, IL, USA). FITC labelling was performed by incubation in a 0.2 M NaHCO3 pH 9.5 buffer with a final concentration of 0.2 mg/ml FITC (from a 2 mg/ml FITC stock in DMSO) and shaking for 1 hour at 37° C. and subsequently extensively washing with phosphate buffered saline (PBS). SYTO-24 labelling was performed in PBS using a final 1 μM concentration of the dye for at least 30 minutes and subsequently washing with PBS. […] Aggregation was examined immediately or at a more convenient moment using a fluorescence microscope. […]
The Minimal Aggregation Concentration (MAC), the lowest concentration of polysaccharides still convincingly showing microbial aggregation, was determined by 2-fold serial dilutions and expressed in mg or microgram polysaccharides/ml. […] Quantification of samples was based on dry weight determination unless otherwise indicated.
10× concentrated Aloe vera leaf juice, a 10× decolorized liquid made from purified inner leaf fillet that contained not less than 10% polysaccharides, was purchased at a commercial supplier (ACTIValoe® Aloe vera Gel 10X-D, AloeCorp, Harlingen, TX, USA). […] The Minimal Aggregation Concentration (MAC) of the >12 kDa fraction was determined and compared to that of D-mannose.

With `O=C[C@@H](O)[C@@H](O)[C@H](O)[C@H](O)CO` [D-mannose] the MAC (Minimal Aggregation Concentration towards Staphylococcus aureus, mg polysaccharides/ml) was >16 mg/mL and the aggregating activity (highest concentration tested (16 mg/ml)) was “did not have aggregating activity”.
